Assay results from patent publication US20070122830A1, “Prohibitin-directed diagnostics and therapeutics for cancer and chemotherapeutic drug resistance” (Aurelium BioPharma Inc., priority 2005, published 2007).

Legend:
Format in all cases: cell-based, human
[1] = tested on: prohibitin; test: Prohibitin silencing by siRNA in MDA cells, anti-prohibitin immunoblot; settings: for decrease in prohibitin expression: MDA cell lines
Experimental: Cell extracts from drug-resistant and drug-sensitive cell lines were prepared to determine the expression levels of potential therapeutic targets in drug-resistant cells. Briefly, cultured cells were rinsed 2 times with 15 ml of 1× phosphate buffered saline (“PBS”), and harvested by trypsinization. Cells were collected in a 15 ml tube by centrifugation at 1000 rpm for 5 min. The supernatant was discarded and cells were washed 3 times with 1×PBS. The cell pellet was transferred to an Eppendorf tube and […] of 1×PBS were added. Cells were centrifuged 5 min. at 3000 rpm in an Eppendorf Microfuge. The supernatant was removed and cells were then lysed in […] of lysis buffer (50 mM Tris, pH 7.5, 150 mM NaCl, 1% NP-40, 0.5% sodium deoxycholate), containing protease inhibitors ([…], […] benzamidine, 0.2 mM PMSF) and incubated 5 min. on ice. The cell lysates were then centrifuged at 14,000×g for 10 min. at 4° C. The protein concentration of the supernatants was determined by the DC Protein assay (BioRad, Hercules, Calif.). Samples were subsequently stored at −80° C. until ready for analysis.
Total cell lysates were thawed and then incubated with 1 U/ml DNAse I (New England BioLabs, Inc., Beverly, Mass.), 5 mM MgCl2 (final concentration) for 2 hours on ice. Their protein concentration was determined using the RC DC protein assay kit from BIORAD according to manufacturer's instructions (BioRad Laboratories, Hercules, Calif.) (see also Lowry et al., (1951) J. Biol. Chem. 193: 265-275). Equivalent amounts of proteins ([…]) from total cell extracts from sensitive (MCF7, MDA-MB-231) and chemotherapeutic drug-resistant cells (MCF7/AR and MDA-MB-231/AR) were analyzed by polyacrylamide gel electrophoresis followed by blotting to a nitrocellulose membrane. The membrane was subsequently contacted with an anti-prohibitin antibody obtained from Abcam, Inc., Cambridge, Mass. The immunoblots were incubated with an anti-IgG secondary antibody and visualized using horseradish peroxidase using the manufacturer's protocol (Bio-Rad Laboratories, Hercules, Calif.).
To establish the importance of prohibitin to the expression of the drug-resistant phenotype in MDA cell lines, prohibitin expression was silenced using RNAi. Briefly, the following siRNA duplexes targeting the human prohibitin mRNA were designed and purchased either from Ambion (Austin, Tex.) or Invitrogen (Carlsbad, Calif.). […]
The siRNA duplex was predesigned, synthesized with 3′TT overhangs, purified and annealed by Ambion (Austin, Tex.). […] Transfection efficiencies were typically evaluated 24-48 hrs post transfection using a fluorescence microscope. […]

[2] = tested on: prohibitin; test: Prohibitin silencing by siRNA in MCF-7 cells, anti-prohibitin immunoblot; settings: MCF-7 cell line; FIG. 6
Source text: (§1) To establish the importance of prohibitin to the expression of the drug-resistant phenotype in MDA cell lines, prohibitin expression was silenced using RNAi. Briefly, the following siRNA duplexes targeting the human prohibitin mRNA were designed and purchased either from Ambion (Austin, Tex.) or Invitrogen (Carlsbad, Calif.). The siRNA duplex sequences corresponding to nucleotides 425 through 443 (GenBank SEQ ID NUMBER: U49725.1) targeting the start of the prohibitin mRNA transcript were:
(§2) For a typical siRNA transfection, 1 nmole of the annealed siRNA duplex was mixed with 1.4 ml of Opti-MEM reagent (Invitrogen). In another tube, […] of Oligofectamine reagent (Invitrogen, Carlsbad, Calif.) was mixed with […] of Opti-MEM. The two solutions were combined and mixed gently by inversion and incubated for 20 min. at RT. The resulting solution was added to the cultured cells drop by drop in a 10 cm dish (cells are approximately 40-50% confluent). The next day the transfected cells were trypsinized and seeded in 6 or 96-well plates and further incubated for the indicated amount of time (assay dependent) before further analysis.
(§3) Targeted silencing of prohibitin was performed as described in Example 2 above.

[3] = tested on: prohibitin; test: Prohibitin silencing by siRNA in SKOV3 cells, anti-prohibitin immunoblot; settings: for decrease in prohibitin: FIG. 7
Source text: as §1, §2, §3

Which results are given for “prohibitin siRNA: siRNA duplex to human prohibitin mRNA nt 425-443; sense 5′-GGAAGUGGUCUGUCUGUUAtt-3′, antisense 5′-UAACAGACAGACCACUUCCtt-3′ (sense GGAAGUGGUCUGUCUGUUATT; antisense UAACAGACAGACCACUUCCTT; chemistry not given here)”?
decrease in prohibitin expression ([1]; four days post-treatment, FIG. 2): 43%; decrease in prohibitin expression ([1]; fourth day after treatment, FIG. 3): 58%; decrease in prohibitin expression ([1]; two days post-treatment, FIG. 2): 79%; additional decrease in prohibitin expression compared to mock silencing ([1]; MDA cells, FIG. 5): 60%; decrease in prohibitin expression as compared to mock siRNA [2]: 37%; repeat of prohibitin silencing ([3]; FIG. 8): confirmed, albeit with increased prohibitin expression; decrease in prohibitin ([3]; six days after treatment): 71%; decrease in prohibitin ([3]; three days after treatment): ~93%
